{"source": "paper PMC7506137", "about": "“Selective Phosphodiesterase 1 Inhibitor BTTQ Reduces Blood Pressure in Spontaneously Hypertensive and Dahl Salt Sensitive Rats: Role of Peripheral Vasodilation” (Frontiers in Physiology, 2020)", "tested_on": "mesenteric arteries from Dahl SS rats", "assay": "Myography in isolated mesenteric arteries", "design": "species or system Rat", "source_text": "For studies of the mesenteric arteries, rats were anesthetized using 5% isoflurane gas followed by euthanasia by secondary method. Small mesenteric arteries (∼300-μm internal diameter, 350-μm external diameter) supplying the small intestine were carefully excised under a dissecting microscope (Leica; Buffalo, NY, United States) and immersed in a cold physiological salt solution having the following ionic composition (in mM): NaCl (119.0), KCl (4.7), CaCl2 (1.6), NaH2PO4 (1.18), MgSO4 (1.17), NaHCO3 (24.0), D-glucose (5.5), and EDTA (0.03). The arteries were cannulated at the proximal and distal ends using glass micropipettes. The vessels were equilibrated with a 21% O2, 5% CO2, 74% N2 gas mixture at 37°C in the physiological salt solution for 30 min. The intraluminal pressure was maintained at 80 mmHg to approximate in vivo conditions, and the internal diameter of the artery was measured using television microscopy. Responses to vasodilator stimuli (different BTTQ concentrations) were determined in arteries precontracted with 10 μM phenylephrine (PE) and expressed as % increase from basal (PE-precontracted) diameter. Responses of the mesenteric arteries to the endothelium-dependent vasodilator agonist acetylcholine (ACh) were evaluated in SS rats fed a high salt diet (4% NaCl) for 3 weeks and treated with BTTQ (3 mg/kg) p.o. gavage twice daily or vehicle."}
{"compound": "O=c1c2nnc(C3(C4CC4)CC3)n2c2c(n1CC1CC1)CCCC2", "note": "[BTTQ, 1-[1,1′-bi(cyclopropyl)-1-yl]-5-(cyclopropylmethyl)-6,7,8,9-tetrahydro[1,2,4]triazolo[4,3-A]quinoxaline-4(5H)-one]", "values": [{"measurement": "relaxation, % of the initial fully relaxed diameter", "setting": "1 mM, arteries pre-constricted with 10 μM phenylephrine", "value": "about 92%"}, {"measurement": "acetylcholine-induced vasorelaxation, treated vs vehicle group", "setting": "arteries from Dahl SS rats treated by oral gavage (3 mg/kg twice daily), high salt diet 21 days", "value": "no significant difference"}, {"measurement": "relaxation of mesenteric arteries compared to the vehicle", "setting": "escalating concentrations, pre-constricted with 10 μM phenylephrine", "value": "concentration-dependent relaxation"}]}
